#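 48-hour exposure; five concentrations; linearly interpolated endpoints. Abbreviation: GI50, concentration required for 50% inhibition of growth. TGI: concentration producing complete growth inhibition.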 Peptide text beside a SMILES is read from it. * marks the point of attachment. X26 = Clc1c(Cl)c(Cl)c(O*)c(Cl)c1Cl; Boc = CC(C)(C)OC(=O)*; OBn = c1ccc(CO*)cc1; Bn = c1ccc(C*)cc1
# What was measured:
# Assay in all cases: NCI tumour cell line growth inhibition, 48 h
# [1] = tested on: HCT-116 colon
# [2] = tested on: UACC-257 melanoma
# [3] = tested on: SK-OV-3 ovarian
# [4] = tested on: OVCAR-3 ovarian
# [5] = tested on: SK-MEL-5 melanoma
# [6] = tested on: HOP-62 NSCLC
# [7] = tested on: COLO 205 colon
# [8] = tested on: HCC-2998 colon
# [9] = tested on: SNB-19 CNS
# [10] = tested on: SR leukemia
smiles,measurement,setting,value
CCOC(=O)Cn1nnc2cc(Nc3c(C)[n+]([O-])c4cc(F)c(OCC)cc4[n+]3[O-])ccc21,TGI,[1],> 100 µM
same,TGI,[2],> 100 µM
same,TGI,[3],> 100 µM
same,TGI,[4],> 100 µM
same,TGI,[5],> 100 µM
same,TGI,[6],89.5 µM
O=P1(C(O)/C=C/c2ccccc2)N(Cc2ccccc2)[C@@H]2CCCC[C@H]2N1Cc1ccccc1 (stereo partly drawn),TGI,[7],6.26 µM
same,TGI,[8],14.4 µM
same,TGI,[1],14 µM
same,TGI,[2],16.2 µM
same,TGI,[3],> 100 µM
same,TGI,[9],20.6 µM
same,TGI,[4],27.8 µM
same,TGI,[5],16.4 µM
same,TGI,[6],34.6 µM
COc1cccc(N2C(=O)CS(=O)(=O)C2c2cccc(Oc3ccccc3)c2)c1 (stereo not drawn),TGI,[7],42.4 µM
same,TGI,[1],24.7 µM
same,TGI,[2],44.1 µM
same,TGI,[3],> 100 µM
same,TGI,[9],> 100 µM
same,TGI,[4],> 100 µM
same,TGI,[5],22.6 µM
same,TGI,[10],13.1 µM
same,TGI,[6],> 100 µM
CC1(C)N=C(N)N=C(N)N1c1cccc(OCc2cccc(N)c2)c1,TGI,[7],> 100 µM
same,TGI,[1],> 100 µM
same,TGI,[2],55 µM
same,TGI,[3],> 100 µM
same,TGI,[9],> 100 µM
same,TGI,[4],> 100 µM
same,TGI,[5],> 100 µM
same,TGI,[6],> 100 µM
Nc1c(S(N)(=O)=O)cc(S(N)(=O)=O)cc1S(N)(=O)=O,TGI,[7],> 100 µM
same,TGI,[8],> 100 µM
same,TGI,[1],> 100 µM
same,TGI,[2],> 100 µM
same,TGI,[3],> 100 µM
same,TGI,[9],> 100 µM
same,TGI,[4],> 100 µM
same,TGI,[5],> 100 µM
same,TGI,[6],> 100 µM
O=C1N/N=C\c2ccc(cc2)OCc2cccc(n2)COc2ccc(cc2)/C=N\NC1=O,TGI,[7],> 25 µM
same,TGI,[1],> 25 µM
same,TGI,[2],> 25 µM
same,TGI,[3],> 25 µM
same,TGI,[9],> 25 µM
same,TGI,[4],> 25 µM
same,TGI,[10],> 25 µM
same,TGI,[6],> 25 µM
COC(=O)C1=C(C(=O)OC)SC(=C2SC3=C(SC(=C4SCCS4)S3)S2)S1,TGI,[7],> 100 µM
same,TGI,[1],> 100 µM
same,TGI,[2],> 100 µM
same,TGI,[3],> 100 µM
same,TGI,[9],> 100 µM
same,TGI,[5],> 100 µM
same,TGI,[10],> 100 µM
same,TGI,[6],> 100 µM
O=C1/C(=C/c2ccc(Cl)cc2)CCCc2ccc(F)cc21,GI50,[7],18.7 µM
same,TGI,[7],56.3 µM
same,GI50,[8],21.2 µM
same,TGI,[8],54.9 µM
same,GI50,[1],> 100 µM
same,TGI,[1],> 100 µM
same,GI50,[2],16.7 µM
same,TGI,[2],42.9 µM
same,GI50,[3],24.7 µM
same,TGI,[3],69.4 µM
same,GI50,[9],27.6 µM
same,TGI,[9],80.2 µM
same,GI50,[4],16.9 µM
same,TGI,[4],51.4 µM
same,GI50,[5],17.4 µM
same,TGI,[5],31.3 µM
C[C@H](c1ccccc1)N1C(=O)[C@@H](OCc2ccccc2)[C@H]1[C@H](COC(=O)COCc1ccccc1)OCc1ccccc1,TGI,[7],> 100 µM
same,TGI,[1],> 100 µM
same,TGI,[3],> 100 µM
same,TGI,[9],> 100 µM
same,TGI,[4],> 100 µM
same,TGI,[5],> 100 µM
same,TGI,[10],> 100 µM
same,TGI,[6],> 100 µM
Cc1cc(OCc2nnc3sc(NC(=O)c4ccccc4)nn23)ccc1Cl,TGI,[7],> 100 µM
same,TGI,[8],90.2 µM
same,TGI,[1],> 100 µM
same,TGI,[2],> 100 µM
same,TGI,[3],> 100 µM
same,TGI,[9],> 100 µM
same,TGI,[4],> 100 µM
same,TGI,[5],> 100 µM
same,TGI,[6],48.2 µM
CC(C)CC(NC(=O)C(CCC(=O)OCc1ccccc1)NC(=O)OC(C)(C)C)C(=O)NC(COCc1ccccc1)C(=O)NC(Cc1ccccc1)C(=O)Oc1c(Cl)c(Cl)c(Cl)c(Cl)c1Cl (stereo not drawn) (Boc-E(OBn)LS(Bn)F-X26; configuration not given here),TGI,[7],58.5 µM
same,TGI,[1],31.6 µM
same,TGI,[2],66.3 µM
same,TGI,[3],83.8 µM
same,TGI,[9],83 µM
same,TGI,[5],40.9 µM
same,TGI,[10],97.9 µM
Oc1c(OCc2nnc(CCCCCCCCc3nnc(COc4ccc5ccccc5c4O)o3)o2)ccc2ccccc12,TGI,[7],> 100 µM
same,TGI,[8],> 100 µM
same,TGI,[1],35.6 µM
same,TGI,[2],> 100 µM
same,TGI,[3],> 100 µM
same,TGI,[9],> 100 µM
same,TGI,[5],> 100 µM
CC(=O)OC1CC2(O)C(CCC3(C)C(c4ccc(=O)oc4)CCC32O)C2(C)C1=CC(O)C1OC12 (stereo not drawn),TGI,[7],0.354 µM
same,TGI,[8],0.436 µM
same,TGI,[1],0.216 µM
same,TGI,[2],0.333 µM
same,TGI,[3],0.252 µM
same,TGI,[9],0.461 µM
same,TGI,[4],0.0697 µM
same,TGI,[5],0.0435 µM
same,TGI,[6],0.172 µM
C=C1C[C@@H]2CC[C@@]34C[C@H]5O[C@H]6[C@@H](O3)[C@H]3O[C@H](CC[C@@H]3O[C@H]6[C@H]5O4)CC(=O)C[C@@H]3[C@@H](OC)[C@@H](C[C@H](O)CN)O[C@H]3C[C@H]3O[C@@H](CC[C@@H]1O2)C[C@@H](C)C3=C,TGI,[7],0.00193 µM
same,TGI,[8],0.096 µM
same,TGI,[1],0.101 µM
same,TGI,[2],> 1 µM
same,TGI,[3],0.286 µM
same,GI50,[9],0.00127 µM
same,TGI,[9],> 1 µM
same,GI50,[4],0.0002 µM
same,TGI,[4],0.000836 µM
same,TGI,[5],0.043 µM
same,TGI,[6],> 1 µM
Cc1ccc2c(c1C)CC1(Cc3c(C)ccc(C)c3C1=O)C2=O (stereo not drawn),TGI,[7],> 100 µM
same,TGI,[8],> 100 µM
same,TGI,[1],> 100 µM
same,TGI,[2],> 100 µM
same,TGI,[3],> 100 µM
same,TGI,[9],> 100 µM
same,TGI,[5],> 100 µM
COc1ccc(OC/C(N=Cc2ccncc2)=N/NC(=O)c2ccncc2)cc1,TGI,[7],> 100 µM
same,TGI,[8],> 100 µM
same,TGI,[1],> 100 µM
same,TGI,[2],> 100 µM
same,TGI,[3],> 100 µM
same,TGI,[9],> 100 µM
same,TGI,[4],> 100 µM
same,TGI,[6],> 100 µM
O=c1ccn(-c2ccccn2)c(=O)n1-c1ccccn1,TGI,[7],> 100 µM
same,TGI,[8],> 100 µM
same,TGI,[1],> 100 µM
same,TGI,[2],> 100 µM
same,TGI,[3],> 100 µM
same,TGI,[9],> 100 µM
same,TGI,[4],> 100 µM
same,TGI,[5],> 100 µM
same,TGI,[6],> 100 µM
